Assay results reported in patent publication US12427151B2, “Compositions and method of treating cancer” (The Regents of the University of California, priority 2017, dated 2025).
In brackets after ≈: the same amount, converted by molar mass.

Legend:
GAS [1] = test: Stability of antimicrobial activity after heat or protease treatment (radial diffusion assay); type: physicochemical, group A streptococcus; conditions: activity against GAS
Source text: (a) Screening for antimicrobial activity of culture supernatant from 44 strains of S. epidermidis strains isolated from normal human skin by radial diffusion assay against group A streptococcus (GAS). Data represent diameter of growth inhibition zone of conditioned media of each strain. UD=undetectable. (b) Elution profile of the antimicrobial compound purified from culture supernatant of S. epidermidis MO34 by HPLC using a PolyHYDROXYMETHYL. The last step of 5 purification steps is shown. The insert panel represents antimicrobial activity of each fraction on radial diffusion assay against GAS. Green line represents a gradient of H2O in acetonitrile. (c-d) Stability of antimicrobial molecules from S. epidermidis producing the strongest antibiotic activity (MO34) against GAS after heat-treatment (100° C. for indicated time) (c) and incubation with proteinase K (2 mg/mL) or papain (2 mg/mL) at 37° C. for 3 hrs, followed by 5-min incubation at 90° C. to inactivate enzyme (d). Antimicrobial activity against GAS was determined by radial diffusion assay.
To characterize the molecule(s) responsible for antimicrobial activity secreted from the MO34 strain, the antimicrobial molecule was purified from the conditioned media based on activity against GAS. A single peak was isolated in the last chromatography of 5 purification steps (FIG. 1b). […]

[2] = test system: NHEKs treated with mARC1 and mARC2 siRNA; test: Gene silencing of mARCs with siRNA, sensitivity to 6-HAP; type: cell-based, human; conditions: 6-HAP 10 μg/mL for 24 hrs, BrdU incorporation
Method: (a-b) Selective antiproliferative activity of 6-HAP against Pam212 squamous cell carcinoma, but not against normal keratinocytes. BrdU incorporation into Pam212 cells (b) or NHEKs (b) after 4-hr or 24-hr incubation, respectively, in suitable media containing indicated concentrations of 6-HAP or mitomycin C (10 μg/mL) (a). (c) Expression of mARC1 and mARC2 in NHEKs, squamous cell carcinoma (Pam212), melanoma (B16F10) and lymphoma cell lines (L5178). To compare relative expression level in each cells, data was shown as relative to GAPDH expression. (d) Expression of mARC1 and mARC2 in NHEKs treated with control siRNA, mARCI siRNA and mARC2 siRNA. (e) Effect of gene silencing with mARC1 and mARC2 siRNA on sensitivity to 6-HAP in NHEKs. NHEKs treated with each siRNA were incubated for 48 hrs and then incubated with 10 μg/mL of 6-HAP for 24 hrs.
Gene silencing of mARCs with siRNA. NHEK was cultured in EpiLife® media containing pre-designed siRNA for mARC1 or mARC2 (Thermo Fisher, Waltham, MA), and RNAiMAX® reagent for 24 hrs. Cells were maintained in EpiLife for 72 hrs, and incubated with 6-HAP (10 μg/mL) for 24 hrs. Anti-proliferative activity of 6-HAP was determined by measuring BrdU incorporation as described above.
In mammalian cells, mitochondrial […] reducing components (mARC) 1 and 2 have shown to be capable of reducing N-hydroxylated nucleobase analogs to canonical nucleobases. […]

GAS [3] = test: Antimicrobial activity against GAS in the presence of adenine; type: cell-based, group A Streptococcus; conditions: 20 hrs, CFU
Method: (a) Time course killing of GAS in THB containing 6-HAP (25 μg/mL), mitomycin C (5 μg/mL), or LL-37 (10 μM). At each indicated time point, live GAS in the media was measured by counting CFU on an agar plate. The data represent mean±SE of four individual experiments. (b) Membrane permeability of GAS incubated in THB containing 6-HAP (25 μg/mL), mitomycin C (5 μg/mL) and LL-37 (10 μM) for 1 hr. The bacteria with compromised plasma membranes (Red) can be distinguished from those with intact membranes (Green). (c) BrdU incorporation into nascent DNA of GAS after incubation with 6-HAP (25 μg/mL) or mitomycin C (5 μg/mL) in THB containing BrdU (10 μM) for 30 or 60 min. (d) BrdU incorporation into nascent DNA of S. epidermidis ATCC12228 after incubation with 6-HAP (25 μg/mL) or mitomycin C (5 μg/mL) in THB containing BrdU (10 μM) for 60 min. The data represent mean±SE of five individual experiments (*P<0.05 and **P<0.01 by Student's t-test vs vehicle control). […] Extension reaction was analyzed on a 20% acrylamide gel by electrophoresis (f). […] GAS survival was measured by counting CFU. […]
We next assessed the effect of 6-HAP on DNA synthesis. […] To directly examine the action of 6-HAP on DNA extension in a cell free system, 25-bp templates and matching 18-bp fluorescence primers were designed to measure DNA extension in vitro by Klenow (exo) DNA polymerase (FIG. 4e).

M. luteus ATCC4698 = test: MBC determination; type: cell-based; conditions: Micrococcus luteus, 3-log reduction, 24 hour, 37° C., half strength MHB in PBS
[4] = Systemic toxicity in mice; type: in vivo; conditions: intravenous 20 mg/kg every 48 hrs for 2 weeks
Method: C57BL6 mice (8 week female) were intravascularly administrated with 6-HAP (20 mg/kg) or with an equal volume of vehicle (2.5% DMSO in 0.9% NaCl) every 48 hours for 2 weeks (Arrows). To observe toxicity of 6-HAP, mouse weight was determined at indicated time points. Data represent mean±SE of 10 mice.
Effect of systemic administration with 6-HAP on skin infection and melanoma growth in mice. […] Thus, given the apparent lack of toxicity, the effect on deep tissue infection was tested by intravenously injecting the non-toxic dose of 6-HAP (20 mg/kg) into a mouse model of GAS deep skin infection.

ONc1ncnc2nc[nH]c12 [6-HAP, 6-N-hydroxyaminopurine]
heat stability of antimicrobial activity (GAS [1]; 100° C. for indicated time): heat-stable | protease sensitivity of antimicrobial activity (GAS [1]; proteinase K (2 mg/mL) or papain (2 mg/mL) at 37° C. for 3 hrs): protease-insensitive | cellular sensitivity to 6-HAP after mARC1 and mARC2 gene silencing [2]: increased cellular sensitivity | antimicrobial activity against GAS on addition of excessive adenine (GAS [3]): partially decreased | MBC (M. luteus ATCC4698): 12.5 mg/L (≈ 82.7 µM) | toxic effects assessed by visual appearance, behavior or change in weight [4]: no apparent toxic effects
